In patent US9592223B2, “Small molecule inhibitors of MALT1” (Cornell University, priority 2012, dated 2017):
Where two headings read alike, the source gives them in different places.

How the values were obtained:
[1] = Toxicity 2: 25 mg/kg daily IP for 14 days, blood count, serum chemistry, histology; assay type: in vivo, mice; details: for ALBUMIN / ALP / ALT / AST / BASOPHILS / BUN / CALCIUM / CHLORIDE / CHOLESTEROL / CK / CREATININE / DIRECT BILIRUBIN / EOSINOPHILS / GGT / GLOBULIN / GLUCOSE / HEMATOCRIT / HEMOGLOBIN / INDIRECT BILIRUBIN / LYMPHOCYTES / MONOCYTES / NEUTROPHILS / PHOSPHORUS / PLATELETS / RBC / SODIUM / TOTAL BILIRUBIN / TOTAL PROTEIN / WBC: 25 mg/kg IP daily 14 days
Description: Brain, heart, lung, liver, kidney, bowel, spleen, thymus and bone marrow tissues were examined.

[2] = system: OCI-Ly10 cells; experiment: Growth inhibition, ATP-based luminescent assay; assay type: cell-based; details: Homo sapiens; OCI-Ly10, single dose, 48 hr
Method: (§1) Cell proliferation was determined by ATP quantification using a luminescent method (CellTiter-Glo, Promega, Madison, Wis.) and Trypan blue dye-exclusion (Sigma, St. Louis, Mo.). Cell viability in drug-treated cells was normalized to their respective controls (fractional viability) and results are given as 1-fractional viability. CompuSyn software (Biosoft, Cambridge, UK) was used to determine drug concentrations inhibiting fractional growth compared to controls.
(§2) DLBCL cell lines were grown in exponential growth conditions during the 48 hr of treatment. Cell proliferation was determined by ATP quantification using a luminescent method (CellTiter-Glo, Promega, Madison, Wis.) and Trypan blue dye-exclusion (Sigma, St. Louis, Mo.). Luminescence was measured using the Synergy4 microplate reader (BioTek Instruments, Winooski, Vt.). Standard curves for each cell line were calculated by plotting the cell number (determined by the Trypan blue method) against their luminescence values and number of cells was calculated accordingly. Cell viability in drug-treated cells was normalized to their respective controls (fractional viability) and results are given as 1-fractional viability. CompuSyn software (Biosoft, Cambridge, UK) was used to determine the drug concentration that inhibits the growth of cell lines by […]. Experiments were performed in triplicate.

[3] = system: HBL-1 cells; experiment: Growth inhibition, ATP-based luminescent assay; assay type: cell-based; details: Homo sapiens, HBL1
Method: as §1, §2

[4] = system: OCI-Ly3 cells; experiment: Growth inhibition, ATP-based luminescent assay; assay type: cell-based; details: Homo sapiens; OCI-Ly3, single dose, 48 hr
Method: as §1, §2

[5] = system: c-REL nuclear protein; experiment: c-REL immunofluorescence in paraffinized xenograft tumor sections; assay type: in vivo, mice; details: IP 25 mg/kg/day
Description: Animals were sacrificed 24 hr after the fourteenth injection.
Paraffin-embedded tumor xenografts were sectioned, dewaxed and submitted to antigen retrieval. For IF-P, Alexa Fluor-488 conjugated secondary antibodies from Invitrogen where used and cell nuclei where counterstained with DAPI. Fluorescent images were taken using an Axiovert 200M fluorescent microscope (Carl Zeiss Inc., Thornwood, N.Y.). Oberkochen, Germany). For IHC, biotin-conjugated secondary antibodies where used. Then avidin/biotin peroxidase was applied to the slides (Vector Laboratories). Color was developed with diaminobenzoate chromogen peroxidase substrate (Vector) and counterstained with hematoxilin-eosyn. Pictures were obtained using an AxioCam (Carl Zeiss Inc.) camera attached to an AxioSkop II light microscope (Carl Zeiss Inc.). Samples were reviewed by a pathologist.

[6] = system: ABC-DLBCL cell lines HBL-1 and TMD8 vs GCB-DLBCL cell line OCI-Ly1; experiment: Cell proliferation of selected hits and analogs, ATP-based metabolic luminescent assay; set-up: species or system human
Description: MALT1 activity plays an important role in selectively maintaining proliferation of ABC-DLBCL cell lines (Ngo et al., 2006). Accordingly ABC and GCB-DLBCL cell lines present differential sensitivity to MALT1 cleavage inhibition by the peptide Z-VRPR-FMK (Ferch et al., 2009; Hailfinger et al., 2009; Rebeaud et al., 2008). To determine whether candidate small molecules display a similar profile two ABC-DLBCL cell lines, HBL-1 and TMD8, and one GCB-DLBCL cell line, OCI-Ly1, were exposed to increasing concentrations of the nineteen selected molecules. Cell proliferation was measured 48 hr after exposure to a single dose of compound using an ATP-based metabolic luminescent assay (summarized in FIG. 1C).
A total of 704 analog compounds from available libraries with similarity score ≧70% (Tanimoto similarity functions) were screened by LZ-MALT1 fluorescence assay.
Cell proliferation was determined by ATP quantification using a luminescent method (CellTiter-Glo, Promega, Madison, Wis.) and Trypan blue dye-exclusion (Sigma, St. Louis, Mo.). […]
DLBCL cell lines were grown in exponential growth conditions during the 48 hr of treatment. Cell proliferation was determined by ATP quantification using a luminescent method (CellTiter-Glo, Promega, Madison, Wis.) and Trypan blue dye-exclusion (Sigma, St. Louis, Mo.). […]

Work on `COCCOc1nc(-c2ccc(Cl)c(Cl)c2)n(-c2ccc(NC(=O)CCl)cc2)n1` [MI-2] yielded an ALBUMIN ([1]; d14) of 3.12 g/dL, an ALP ([1]; d14) of 83 U/L and an ALT ([1]; d14) of 25 U/L. The AST ([1]; d14) was 70 U/L, the BASOPHILS ([1]; d14) was 0.01 K/μL and the BUN ([1]; d14) was 23.4 mg/dL. The CALCIUM ([1]; d14) was 10.88 mg/dL, the CHLORIDE ([1]; d14) was 108.4 mEq/L and the CHOLESTEROL ([1]; d14) was 85.4 mg/dL. For the same compound, the CK ([1]; d14) was 202.8 U/L, the CREATININE ([1]; d14) was 0.22 mg/dL and the “DIRECT BILIRUBIN” value ([1]; d14) was 0.10 mg/dL. It also gave an EOSINOPHILS ([1]; d14) of 0.03 K/μL, a GGT ([1]; d14) of 0 U/L and a GLOBULIN ([1]; d14) of 2.20 g/dL. It also gave a GLUCOSE ([1]; d14) of 313.8 mg/dL, an HEMATOCRIT ([1]; d14) of 40.86% and an HEMOGLOBIN ([1]; d14) of 12.94 g/dL. For the same compound, the “INDIRECT BILIRUBIN” value ([1]; d14) was 0.08 mg/dL, the LYMPHOCYTES ([1]; d14) was 6.29 K/μL and the MONOCYTES ([1]; d14) was 0.32 K/μL. For the same compound, the NEUTROPHILS ([1]; d14) was 1.18 K/μL, the PHOSPHORUS ([1]; d14) was 9.46 mg/dL and the PLATELETS ([1]; d14) was 981 K/μL. For the same compound, the RBC ([1]; d14) was 8.60 M/μL, the SODIUM ([1]; d14) was 152.8 mEq/L and the “TOTAL BILIRUBIN” value ([1]; d14) was 0.180 mg/dL. For the same compound, the “TOTAL PROTEIN” value ([1]; d14) was 5.32 g/dL, the WBC ([1]; d14) was 7.83 K/μL and the ALBUMIN ([1]; d24 (10-day washout)) was 3.15 g/dL. It also gave an ALP ([1]; d24 (10-day washout)) of 100 U/L, an ALT ([1]; d24 (10-day washout)) of 23 U/L and an AST ([1]; d24 (10-day washout)) of 49.5 U/L. The BASOPHILS ([1]; d24 (10-day washout)) was 0.04 K/μL, the BUN ([1]; d24 (10-day washout)) was 27.0 mg/dL and the CALCIUM ([1]; d24 (10-day washout)) was 10.80 mg/dL. The CHLORIDE ([1]; d24 (10-day washout)) was 106.7 mEq/L, the CHOLESTEROL ([1]; d24 (10-day washout)) was 91.75 mg/dL and the CK ([1]; d24 (10-day washout)) was 119.5 U/L. For the same compound, the CREATININE ([1]; d24 (10-day washout)) was 0.20 mg/dL, the “DIRECT BILIRUBIN” value ([1]; d24 (10-day washout)) was 0.10 mg/dL and the EOSINOPHILS ([1]; d24 (10-day washout)) was 0.11 K/μL. For the same compound, the GGT ([1]; d24 (10-day washout)) was 0 U/L, the GLOBULIN ([1]; d24 (10-day washout)) was 2.15 g/dL and the GLUCOSE ([1]; d24 (10-day washout)) was 288.5 mg/dL. The HEMATOCRIT ([1]; d24 (10-day washout)) was 45.02%, the HEMOGLOBIN ([1]; d24 (10-day washout)) was 13.55 g/dL and the “INDIRECT BILIRUBIN” value ([1]; d24 (10-day washout)) was 0.07 mg/dL. For the same compound, the LYMPHOCYTES ([1]; d24 (10-day washout)) was 6.76 K/μL, the MONOCYTES ([1]; d24 (10-day washout)) was 0.27 K/μL and the NEUTROPHILS ([1]; d24 (10-day washout)) was 1.85 K/μL. It also gave a PHOSPHORUS ([1]; d24 (10-day washout)) of 9.65 mg/dL, a PLATELETS ([1]; d24 (10-day washout)) of 1275 K/μL and an RBC ([1]; d24 (10-day washout)) of 9.38 M/μL. For the same compound, the SODIUM ([1]; d24 (10-day washout)) was 153 mEq/L, the “TOTAL BILIRUBIN” value ([1]; d24 (10-day washout)) was 0.175 mg/dL and the “TOTAL PROTEIN” value ([1]; d24 (10-day washout)) was 5.30 g/dL. The WBC ([1]; d24 (10-day washout)) was 9.03 K/μL, the bone marrow histology ([1]; daily IP 25 mg/kg over 14 days) was “normocellular with trilineage maturing hematopoiesis” and the “complete peripheral blood counts, biochemistry and liver function tests” value ([1]; daily IP 25 mg/kg over 14 days) was “normal”. The “toxic effects, weight loss, tissue damage” value ([1]; daily IP 25 mg/kg over 14 days, cumulative 350 mg/kg) was “No toxic effects or other indicators of sickness”, the GI50 [2] was 400 nM and the GI50 ([3]; HBL-1, single dose, 48 hr, read-out: GI50) was 200 nM. For the same compound, the GI50 ([3]; HBL-1, read-out: GI50 concentration) was 200 nM, the GI50 [4] was 400 nM and the “c-REL nuclear protein in tumors” value [5] was “reduced c-REL nuclear protein”. For the same compound, the GI25 concentrations ([6]; 48 hr) was “high nanomolar range” and the “suppression of cell proliferation, ABC-DLBCL vs GCB-DLBCL cell lines” value ([6]; 48 hr after a single dose, increasing concentrations) was “significant selective dose-dependent suppression of ABC-DLBCL cells”.
